Assay results as given in patent US20160008391A1, “GALACTOSAMINOGALACTAN COMPRISING alpha-1-4 LINKED GALACTOSE AND alpha-1-4 LINKED N-ACETYLGALACTOSAMINE FOR USE IN THE TREATMENT OF AT LEAST ONE INFLAMMATORY DISEASE” (INSTITUT PASTEUR, priority 2013, published 2016).

Tests used:
[1] = test system: human PBMCs; test: Cytokine-driven (IL-1β/IL-23, IL-12/IL-18) T-helper cytokine responses in human PBMCs; type: cell-based; conditions: 7 days, presence vs absence of recombinant human IL-1RA 10 ng/ml
Protocol: (§1) A clinical isolate of Aspergillus fumigatus V05-27, which has been characterized previously was used for stimulations (Netea et al., 2003). Conidia and hyphae were prepared and heat-inactivated (HI) as previously described (Chai et al., 2009a). A concentration of 1×10^7/ml was used in the experiments, unless otherwise indicated. C. albicans, strain ATCC MYA-3573 (UC820) (Gow et al., 2007; Lehrer and Cline, 1969). Candida were heat-killed (HK) at 98° C. for 1 hour and used in a final concentration of 1×10^7/ml. Recombinant human IL-1β, IL-23, IL-12 and IL-18 were purchased from R&D Systems (Minneapolis, Minn., USA) and were used in end concentrations of 100 ng/ml, 50 ng/ml, 10 ng/ml and 50 ng/ml respectively. Recombinant human (rh) IL-1Ra (Amgen, Inc., Thousand Oaks, Calif., USA) was used to antagonize IL-1β signalling at a final concentration of 10 ng/ml. Anti-human IL-1Ra (R&D) was used to block IL-1Ra in a final concentration of 10 μg/ml, and was compared to isotype control. Pattern recognition pathways were inhibited in PBMCs by pre-stimulation for 1 hour with a specific inhibitor. LPS derived from Bartonella quitana was used to block TLR4 (Abdollahi-Roodsaz et al., 2007). B. quitana LPS was extracted and purified as described previously (Hirschfeld et al., 1999). Mouse anti-humanTLR-2 (eBioscience, Halle-Zoersel, Belgium) and control mouse IgG1 (eBioscience) were used at a final concentration of 10 μg/mL. Anti-human integrin β2 (αCR3) and control goat IgG were purchased from R&D systems (Minneapolis, Minn., USA) and used in a final concentration of 10 μg/mL. […]
(§2) Venous blood from healthy volunteers was drawn into 10 ml EDTA tubes after written informed consent, after which PBMCs were isolated as previously described (van de Veerdonk et al., 2009). […] The cells were counted using a particle counter (Beckmann Coulter, Woerden, The Netherlands) and the cell number was adjusted to 5×10^6/ml. […]
(§3) Cytokines were measured using commercially available ELISAs (R&D Systems)(Sanquin, Amsterdam, The Netherlands) according to the protocols supplied by the manufacturer. […]

[2] = test system: DSS-induced colitis; test: Dextran sulfate sodium-induced colitis in WT and p47phox−/− mice; type: in vivo; conditions: WT and p47phox−/− mice treated with Anakinra
Protocol: Mice received either regular drinking water (control) or 2.5% dextran sulfate sodium (DSS) in drinking water for 7 days and then allowed to recover by drinking water alone for an additional 7 days. GAG was given intraperitoneally (1 mg/kg) daily for a week. Weight changes were recorded daily, and the day after the 7-days of rest mice were killed and tissues were collected for histology and cytokine analysis. Colonic sections were stained with H&E (Takedatsu 2008). To assess colitis severity, stool and histological scores were used that recently were introduced and proven sensitive to experimental therapy (PMID: 21763243).
Colitis was induced in C57BL/6 wild-type (WT) or p47phox^−/− mice that recapitulate several of the features of the human Chronic Granulomatous Disease (CGD) (Huang et al., 1998; Romani et al., 2008). Colitis is a severe complication of CGD patients, the management of which is a challenge because standard immunosuppressive therapy increases the risk of infection in already immunocompromised hosts (Huang et al., 2004). Colitis was induced with dextran sulfate sodium (DSS 2.5% in drinking water for 7 days and then allowed to recover by drinking water alone for an additional 7 days) and the effect of GAG (1 mg/kg intraperitoneally for a week) on colonic injury was assessed. The day after the 7-day of rest, mice were killed and tissues were collected for histology, RNA and cytokine analysis. Colonic sections were stained with H&E, and histology was scored. Cytokines were measured by enzyme-linked immunoabsorbent assay (ELISA) and real time-polymerase chain reaction (RT-PCR) on colonic tissues.

[3] = cited from earlier work
[4] = test system: human PBMCs; test: A. fumigatus conidia-induced cytokine production in human PBMCs; type: cell-based; conditions: 7 days, presence vs absence of recombinant human IL-1RA 10 ng/ml
Protocol: as §1, §2, §3

[5] = patients with rheumatoid arthritis

Substance: IL-1RA: human recombinant form of interleukin-1 receptor antagonist, commercially produced as anakinra
- IFNγ induction by IL-12/IL-18 [1]: reduced
- IL-17 induction by IL-1/IL-23 [1]: reduced
- IL-22 induction by IL-1/IL-23 [1]: reduced
- cytokine gene expression, compared with the effect of GAG [2]: similar
- damage score, compared with the effect of GAG [2]: similar
- inflammatory pathology, compared with the effect of GAG [2]: similar
- side effect: diarrhea ([3]; human, in vivo): 7%
- side effect: flu-like syndrome ([3]; human, in vivo): 6%
- side effect: infections of upper respiratory tract ([3]; human, in vivo): 13%
- side effect: nausea ([3]; human, in vivo): 8%
- side effect: risk of infections ([3]; human, in vivo): 40%
- side effect: severe infections ([3]; human, in vivo): 2%
- side effect: sinusitis ([3]; human, in vivo): 7%
- progressive joint destruction [3, 5]: slows
- symptoms of rheumatoid arthritis [3, 5]: reduces
- IFNγ induction by Aspergillus conidia [4]: reduced
- IL-17 induction by Aspergillus conidia [4]: reduced
- IL-22 induction by Aspergillus conidia [4]: reduced
